Paper PMC11784200, “Insights into antibiotic resistance promoted by quinolone exposure” (Antimicrobial Agents and Chemotherapy, 2024)
In brackets after ≈: the same amount, converted by molar mass. Read-outs that look alike come from different tables or passages of the source.

How the values were obtained:
[1] = test system: E. coli colonies that became resistant to CHL after CIP treatment; type: cell-based
E. coli marR mutant = test: CHL MIC of marR mutant; type: cell-based; conditions: partial deletion of marR in WT E. coli
Experimental: (§1) Minimum inhibitory concentration (MIC) values were determined in triplicate as described ([55]). […] All compounds were purchased from Sigma.

MG1655 lexA(S119A) = test: Broth-based MIC, lexA(S119A); type: cell-based, E. coli; conditions: Escherichia coli
Experimental: as §1

MG1655 ∆dinB = test: Broth-based MIC, ∆dinB; type: cell-based, E. coli; conditions: Escherichia coli
Experimental: as §1

MG1655 ∆polB = test: Broth-based MIC, ∆polB; type: cell-based, E. coli; conditions: Escherichia coli
Experimental: as §1

E. coli MLS83L = test: Broth-based MIC, MLS83L; type: cell-based; conditions: Escherichia coli
Experimental: as §1

MG1655 ∆umuD = test: Broth-based MIC, ∆umuD; type: cell-based, E. coli; conditions: Escherichia coli
Experimental: as §1

MG1655 ∆recA = test: Broth-based MIC, ∆recA; type: cell-based, E. coli; conditions: Escherichia coli
Experimental: as §1

MG1655 ΔdinB ΔpolB ΔumuD = test: Broth-based MIC, ΔdinB ΔpolB ΔumuD; type: cell-based, E. coli; conditions: Escherichia coli
Experimental: as §1

[2] = colony 1, plates with 2× MIC after 24 h on LB without selection
[3] = colony 2, plates with 2× MIC after 24 h on LB without selection
[4] = colony 3, plates with 2× MIC after 24 h on LB without selection
[5] = colony 4, plates with 2× MIC after 24 h on LB without selection
[6] = colony 5, plates with 2× MIC after 24 h on LB without selection
[7] = colony 6, plates with 2× MIC after 24 h on LB without selection
[8] = colony 7, plates with 2× MIC after 24 h on LB without selection
[9] = colony 8, plates with 2× MIC after 24 h on LB without selection
[10] = colony 9, plates with 2× MIC after 24 h on LB without selection
[11] = colony 10, plates with 2× MIC after 24 h on LB without selection
[12] = colony 11, plates with 2× MIC after 24 h on LB without selection
[13] = colony 12, plates with 2× MIC after 24 h on LB without selection
[14] = colony 13, plates with 2× MIC after 24 h on LB without selection
[15] = colony 14, plates with 2× MIC after 24 h on LB without selection
[16] = colony 15, plates with 2× MIC after 24 h on LB without selection
[17] = colony 16, plates with 2× MIC after 24 h on LB without selection
[18] = colony 17 (first line so numbered, r20), plates with 2× MIC after 24 h on LB without selection
[19] = colony 17 (second line so numbered, r21), plates with 2× MIC after 24 h on LB without selection
[20] = colony 19, plates with 2× MIC after 24 h on LB without selection
[21] = colony 20, plates with 2× MIC after 24 h on LB without selection
[22] = colony 21, plates with 2× MIC after 24 h on LB without selection
[23] = colony 22, plates with 2× MIC after 24 h on LB without selection
[24] = colony 23, plates with 2× MIC after 24 h on LB without selection
[25] = colony 24, plates with 2× MIC after 24 h on LB without selection
[26] = colony 25, plates with 2× MIC after 24 h on LB without selection
[27] = colony 26, plates with 2× MIC after 24 h on LB without selection
[28] = colony 27, plates with 2× MIC after 24 h on LB without selection

`CC1(C)S[C@@H]2[C@H](NC(=O)[C@H](N)c3ccccc3)C(=O)N2[C@H]1C(=O)O` [AMP, ampicillin] was tested, and the Antibiotic resistance [1, 2] was “No”, the Antibiotic resistance [1, 3] was “No” and the Antibiotic resistance [1, 4] was “No”. The Antibiotic resistance [1, 5] was “No”, the Antibiotic resistance [1, 6] was “No” and the Antibiotic resistance [1, 7] was “Yes”. For the same molecule, the Antibiotic resistance [1, 8] was “No”, the Antibiotic resistance [1, 9] was “No” and the Antibiotic resistance [1, 10] was “No”. The Antibiotic resistance [1, 11] was “No”, the Antibiotic resistance [1, 12] was “No” and the Antibiotic resistance [1, 13] was “No”. For the same molecule, the Antibiotic resistance [1, 14] was “No”, the Antibiotic resistance [1, 15] was “No” and the Antibiotic resistance [1, 16] was “No”. For the same molecule, the Antibiotic resistance [1, 17] was “No”, the Antibiotic resistance [1, 18] was “No” and the Antibiotic resistance [1, 19] was “No”. The Antibiotic resistance [1, 20] was “No”, the Antibiotic resistance [1, 21] was “No” and the Antibiotic resistance [1, 22] was “No”. For the same molecule, the Antibiotic resistance [1, 23] was “No”, the Antibiotic resistance [1, 24] was “No” and the Antibiotic resistance [1, 25] was “No”. The Antibiotic resistance [1, 26] was “No”, the Antibiotic resistance [1, 27] was “No” and the Antibiotic resistance [1, 28] was “No”.

In the case of `O=C(N[C@H](CO)[C@H](O)c1ccc([N+](=O)[O-])cc1)C(Cl)Cl` [CHL, chloramphenicol], the Antibiotic resistance [1, 2] was “No”, the Antibiotic resistance [1, 3] was “No” and the Antibiotic resistance [1, 4] was “Yes”. The Antibiotic resistance [1, 5] was “Yes”, the Antibiotic resistance [1, 6] was “Yes” and the Antibiotic resistance [1, 7] was “Yes”. For the same molecule, the Antibiotic resistance [1, 8] was “Yes”, the Antibiotic resistance [1, 9] was “Yes” and the Antibiotic resistance [1, 10] was “Yes”. The Antibiotic resistance [1, 11] was “Yes”, the Antibiotic resistance [1, 12] was “Yes” and the Antibiotic resistance [1, 13] was “Yes”. The Antibiotic resistance [1, 14] was “Yes”, the Antibiotic resistance [1, 15] was “Yes” and the Antibiotic resistance [1, 16] was “Yes”. For the same molecule, the Antibiotic resistance [1, 17] was “Yes”, the Antibiotic resistance [1, 18] was “Yes” and the Antibiotic resistance [1, 19] was “Yes”. The Antibiotic resistance [1, 20] was “Yes”, the Antibiotic resistance [1, 21] was “Yes” and the Antibiotic resistance [1, 22] was “Yes”. The Antibiotic resistance [1, 23] was “Yes”, the Antibiotic resistance [1, 24] was “Yes” and the Antibiotic resistance [1, 25] was “Yes”. The Antibiotic resistance [1, 26] was “Yes”, the Antibiotic resistance [1, 27] was “Yes” and the Antibiotic resistance [1, 28] was “Yes”. For the same molecule, the “Colonies that retained resistance” value ([1]; of 27 CHL-resistant colonies from CIP treatment, cultured without selection) was 25 and the “Increase in the MIC compared to the WT strain” value (E. coli marR mutant) was “eightfold”.

For `O=C(O)c1cn(C2CC2)c2cc(N3CCNCC3)c(F)cc2c1=O` [CIP, ciprofloxacin], the MIC (MG1655 lexA(S119A)) was 0.008 µg/mL (≈ 0.0241 µM), the MIC (MG1655 ∆dinB) was 0.032 µg/mL (≈ 0.0966 µM) and the MIC (MG1655 ∆polB) was 0.032 µg/mL (≈ 0.0966 µM). For the same molecule, the MIC (E. coli MLS83L) was 0.256 µg/mL (≈ 0.773 µM), the MIC (MG1655 ∆umuD) was 0.021 µg/mL (≈ 0.0634 µM) and the MIC (MG1655 ∆recA) was 0.006 µg/mL (≈ 0.0181 µM). For the same molecule, the MIC (MG1655 ΔdinB ΔpolB ΔumuD) was 0.032 µg/mL (≈ 0.0966 µM).

With `NC[C@H]1O[C@H](O[C@H]2[C@H](O)[C@@H](O[C@H]3O[C@H](CO)[C@@H](O)[C@H](N)[C@H]3O)[C@H](N)C[C@@H]2N)[C@H](O)[C@@H](O)[C@@H]1O` [KAN, kanamycin] the Antibiotic resistance [1] was “No”.

In the case of `CO[C@H]1/C=C/O[C@@]2(C)Oc3c(C)c(O)c4c(O)c(c(/C=N/N5CCN(C)CC5)c(O)c4c3C2=O)NC(=O)/C(C)=C\C=C\[C@H](C)[C@H](O)[C@@H](C)[C@@H](O)[C@@H](C)[C@H](OC(C)=O)[C@@H]1C` [RIF, rifampin], the Antibiotic resistance [1] was “No”.

`[H]/N=C(/N)N[C@H]1[C@H](O)[C@@H](O)[C@H](O[C@@H]2O[C@@H](C)[C@](O)(C=O)[C@H]2O[C@@H]2O[C@@H](CO)[C@H](O)[C@@H](O)[C@@H]2NC)[C@@H](N/C(N)=N\[H])[C@@H]1O` [STR, streptomycin] was tested, and the Antibiotic resistance [1, 2] was “No”, the Antibiotic resistance [1, 3] was “No” and the Antibiotic resistance [1, 4] was “No”. For the same molecule, the Antibiotic resistance [1, 5] was “Yes”, the Antibiotic resistance [1, 6] was “No” and the Antibiotic resistance [1, 7] was “No”. For the same molecule, the Antibiotic resistance [1, 8] was “No”, the Antibiotic resistance [1, 9] was “No” and the Antibiotic resistance [1, 10] was “No”. For the same molecule, the Antibiotic resistance [1, 11] was “No”, the Antibiotic resistance [1, 12] was “No” and the Antibiotic resistance [1, 13] was “No”. The Antibiotic resistance [1, 14] was “No”, the Antibiotic resistance [1, 15] was “No” and the Antibiotic resistance [1, 16] was “No”. The Antibiotic resistance [1, 17] was “No”, the Antibiotic resistance [1, 18] was “No” and the Antibiotic resistance [1, 19] was “No”. The Antibiotic resistance [1, 20] was “No”, the Antibiotic resistance [1, 21] was “No” and the Antibiotic resistance [1, 22] was “No”. For the same molecule, the Antibiotic resistance [1, 23] was “No”, the Antibiotic resistance [1, 24] was “No” and the Antibiotic resistance [1, 25] was “No”. For the same molecule, the Antibiotic resistance [1, 26] was “No”, the Antibiotic resistance [1, 27] was “No” and the Antibiotic resistance [1, 28] was “No”.

For `CN(C)[C@@H]1C(O)=C(C(N)=O)C(=O)[C@@]2(O)C(O)=C3C(=O)c4c(O)cccc4[C@@](C)(O)[C@H]3C[C@@H]12` [TET, tetracycline], the Antibiotic resistance [1] was “No and Yes”.

For `COc1cc(Cc2cnc(N)nc2N)cc(OC)c1OC` [TMP, trimethoprim], the Antibiotic resistance [1] was “No and Yes”.

For `Oc1cc(Cl)ccc1Oc1ccc(Cl)cc1Cl` [TRI, triclosan], the Antibiotic resistance [1, 2] was “No”, the Antibiotic resistance [1, 3] was “No” and the Antibiotic resistance [1, 4] was “Yes”. For the same molecule, the Antibiotic resistance [1, 5] was “No”, the Antibiotic resistance [1, 6] was “No” and the Antibiotic resistance [1, 7] was “No”. The Antibiotic resistance [1, 8] was “Yes”, the Antibiotic resistance [1, 9] was “Yes” and the Antibiotic resistance [1, 10] was “No”. For the same molecule, the Antibiotic resistance [1, 11] was “Yes”, the Antibiotic resistance [1, 12] was “No” and the Antibiotic resistance [1, 13] was “No”. For the same molecule, the Antibiotic resistance [1, 14] was “No”, the Antibiotic resistance [1, 15] was “No” and the Antibiotic resistance [1, 16] was “No”. The Antibiotic resistance [1, 17] was “No”, the Antibiotic resistance [1, 18] was “No” and the Antibiotic resistance [1, 19] was “No”. For the same molecule, the Antibiotic resistance [1, 20] was “No”, the Antibiotic resistance [1, 21] was “No” and the Antibiotic resistance [1, 22] was “No”. The Antibiotic resistance [1, 23] was “No”, the Antibiotic resistance [1, 24] was “No” and the Antibiotic resistance [1, 25] was “No”. The Antibiotic resistance [1, 26] was “No”, the Antibiotic resistance [1, 27] was “No” and the Antibiotic resistance [1, 28] was “No”.
